We go through 6 compounds from patent US8551937B2, “Peptide having an extending action for half-life of object peptide in plasma” (priority 2008, dated 2013).

Where a SMILES comes first, the peptide text is derived from it.

The series can be described thus: Motilin immunoreactivity concentration in plasma, half-life after intravenous administration (Example 8). As to conditions: male, SD, rat, in vivo, iv, 10 nmol/kg. As to the method:
The experiment was carried out using rats into which polyethylene tube (PE-50 manufactured by Clay Adams) was inserted into thigh artery under an anesthetized condition with Nembutal. As to a test system, male SD strain rats (Nippon Charles River) of 7 weeks age were used where one group comprised 3 rats. Human motilin or a derivative thereof in a dose of 10 nmol/kg was administered into tail vein of the rat and the blood before the administration and until 60 minutes after the administration was periodically collected by a polyethylene tube inserted into the thigh artery. To the collected blood were added EDTA (manufactured by Dojin Laboratories) and aprotinin (manufactured by Bayer) as a stabilizer and an anti-coagulant, respectively and the plasma was separated therefrom by centrifugal separation. Motilin immunoreactivity concentration in plasma was measured by a competitive radioimmunoassay (RIA) (FIG. 8). At that time, a rabbit polyclonal antibody (#870623) which specifically recognizes the amino acid numbers 1 to 12 of native motilin shown by SEQ ID No: 102 was used as an antibody and, as a labeled compound, ^125I-[Tyr^7] human motilin was used.
As to `CC[C@H](C)[C@H](NC(=O)[C@@H]1CCCN1C(=O)[C@@H](NC(=O)[C@@H](N)Cc1ccccc1)C(C)C)C(=O)N[C@@H](Cc1ccccc1)C(=O)N[C@H](C(=O)N[C@@H](Cc1ccc(O)cc1)C(=O)NCC(=O)N[C@@H](CCC(=O)O)C(=O)N[C@@H](CC(C)C)C(=O)N[C@@H](CCC(N)=O)C(=O)N[C@@H](CCCNC(=N)N)C(=O)N[C@H](C(=O)N[C@@H](CCC(N)=O)C(=O)N[C@@H](CCC(N)=O)C(=O)N[C@@H](CCCNC(=N)N)C(=O)N[C@@H](CCCCN)C(=O)NCC(=O)NCC(=O)N[C@@H](CCC(=O)O)C(=O)N[C@@H](CO)C(=O)N[C@@H](CCCCN)C(=O)N[C@@H](CCCCN)C(=O)N1CCC[C@H]1C(=O)N1CCC[C@H]1C(=O)N[C@@H](C)C(=O)N[C@@H](CCCCN)C(=O)N[C@@H](CC(C)C)C(=O)N[C@@H](CCC(N)=O)C(=O)N1CCC[C@H]1C(=O)N[C@@H](CCCNC(=N)N)C(=O)O)C(C)C)[C@@H](C)O` [Chimeric motilin (II)(MG-i17G2)] (H-FVPIFTYGELQRVQQRKGGESKKPPAKLQPR-OH; N-terminus and C-terminus assumed), the half-life stood at 11.5 min.

`CC[C@H](C)[C@H](NC(=O)[C@H](CCSC)NC(=O)[C@@H]1CCCN1C(=O)[C@@H]1CCCN1C(=O)[C@H](CCCCN)NC(=O)[C@H](CCCCN)NC(=O)[C@H](CO)NC(=O)[C@H](CCC(=O)O)NC(=O)[C@H](CCCCN)NC(=O)[C@H](CCCNC(=N)N)NC(=O)[C@H](CCC(N)=O)NC(=O)[C@H](CCC(N)=O)NC(=O)[C@@H](NC(=O)[C@H](CCCNC(=N)N)NC(=O)[C@H](CCC(N)=O)NC(=O)[C@H](CC(C)C)NC(=O)[C@H](CCC(=O)O)NC(=O)CNC(=O)[C@H](Cc1ccc(O)cc1)NC(=O)[C@@H](NC(=O)[C@H](Cc1ccccc1)NC(=O)[C@@H](NC(=O)[C@@H]1CCCN1C(=O)[C@@H](NC(=O)[C@@H](N)Cc1ccccc1)C(C)C)[C@@H](C)CC)[C@@H](C)O)C(C)C)C(=O)N[C@H](C(=O)N[C@H](C(=O)N[C@@H](CCCNC(=N)N)C(=O)O)[C@@H](C)CC)[C@@H](C)O` [Chimeric motilin (X)(MG-S)] (H-FVPIFTYGELQRVQQRKESKKPPMITIR-OH; N-terminus and C-terminus assumed) displayed a half-life of 5.25 min.

`CC[C@H](C)[C@H](NC(=O)[C@@H]1CCCN1C(=O)[C@@H](NC(=O)[C@@H](N)Cc1ccccc1)C(C)C)C(=O)N[C@@H](Cc1ccccc1)C(=O)N[C@H](C(=O)N[C@@H](Cc1ccc(O)cc1)C(=O)NCC(=O)N[C@@H](CCC(=O)O)C(=O)N[C@@H](CC(C)C)C(=O)N[C@@H](CCC(N)=O)C(=O)N[C@@H](CCCNC(=N)N)C(=O)N[C@H](C(=O)N[C@@H](CCC(N)=O)C(=O)N[C@@H](CCC(N)=O)C(=O)N[C@@H](CCCNC(=N)N)C(=O)N[C@@H](CCCCN)C(=O)N[C@@H](CCC(=O)O)C(=O)N[C@@H](CCCCN)C(=O)N[C@@H](CCCCN)C(=O)N1CCC[C@H]1C(=O)N1CCC[C@H]1C(=O)N[C@@H](C)C(=O)N[C@@H](CCCCN)C(=O)N[C@@H](CC(C)C)C(=O)N[C@@H](CCC(N)=O)C(=O)N1CCC[C@H]1C(=O)N[C@@H](CCCNC(=N)N)C(=O)O)C(C)C)[C@@H](C)O` [Chimeric motilin (N)(MG-dS)] (H-FVPIFTYGELQRVQQRKEKKPPAKLQPR-OH; N-terminus and C-terminus assumed) yielded a half-life of 9.12 min.

`CC[C@H](C)[C@H](NC(=O)[C@@H]1CCCN1C(=O)[C@@H](NC(=O)[C@@H](N)Cc1ccccc1)C(C)C)C(=O)N[C@@H](Cc1ccccc1)C(=O)N[C@H](C(=O)N[C@@H](Cc1ccc(O)cc1)C(=O)NCC(=O)N[C@@H](CCC(=O)O)C(=O)N[C@@H](CC(C)C)C(=O)N[C@@H](CCC(N)=O)C(=O)N[C@@H](CCCNC(=N)N)C(=O)N[C@H](C(=O)N[C@@H](CCC(N)=O)C(=O)N[C@@H](CCC(N)=O)C(=O)N[C@@H](CCCCN)C(=O)N[C@@H](CCCCN)C(=O)N[C@@H](C)C(=O)N[C@@H](Cc1ccc(O)cc1)C(=O)N[C@@H](CO)C(=O)N1CCC[C@H]1C(=O)N[C@@H](CC(=O)O)C(=O)N[C@@H](CCCCN)C(=O)N[C@@H](CCC(=O)O)C(=O)N[C@@H](CCCNC(=N)N)C(=O)N[C@@H](CCCCN)C(=O)N1CCC[C@H]1C(=O)N1CCC[C@H]1C(=O)N[C@@H](C)C(=O)N[C@@H](CCCCN)C(=O)N[C@@H](CC(C)C)C(=O)N[C@@H](CCC(N)=O)C(=O)N1CCC[C@H]1C(=O)N[C@@H](CCCNC(=N)N)C(=O)O)C(C)C)[C@@H](C)O` [Chimeric motilin (XIII)(MGP2)] (H-FVPIFTYGELQRVQQKKAYSPDKERKPPAKLQPR-OH; N-terminus and C-terminus assumed) displayed a half-life of 13.1 min.

`CC[C@H](C)[C@H](NC(=O)[C@@H]1CCCN1C(=O)[C@@H](NC(=O)[C@@H](N)Cc1ccccc1)C(C)C)C(=O)N[C@@H](Cc1ccccc1)C(=O)N[C@H](C(=O)N[C@@H](Cc1ccc(O)cc1)C(=O)NCC(=O)N[C@@H](CCC(=O)O)C(=O)N[C@@H](CC(C)C)C(=O)N[C@@H](CCC(N)=O)C(=O)N[C@@H](CCCNC(=N)N)C(=O)N[C@H](C(=O)N[C@@H](CCC(N)=O)C(=O)N[C@@H](CCC(N)=O)C(=O)N[C@@H](CCCNC(=N)N)C(=O)N[C@@H](CCCCN)C(=O)N[C@@H](CC(N)=O)C(=O)N[C@@H](CO)C(=O)N[C@@H](CCCCN)C(=O)N[C@@H](CCCCN)C(=O)N1CCC[C@H]1C(=O)N1CCC[C@H]1C(=O)N[C@@H](C)C(=O)N[C@@H](CCCCN)C(=O)N[C@@H](CC(C)C)C(=O)N[C@@H](CCC(N)=O)C(=O)N1CCC[C@H]1C(=O)N[C@@H](CCCNC(=N)N)C(=O)O)C(C)C)[C@@H](C)O` [Chimeric motilin (T)(MG-17E/N)] (H-FVPIFTYGELQRVQQRKNSKKPPAKLQPR-OH; N-terminus and C-terminus assumed) yielded a half-life of 5.47 min. This half-life is about 2.4-fold lower than that of the compound before.

`CC[C@H](C)[C@H](NC(=O)[C@@H]1CCCN1C(=O)[C@@H](NC(=O)[C@@H](N)Cc1ccccc1)C(C)C)C(=O)N[C@@H](Cc1ccccc1)C(=O)N[C@H](C(=O)N[C@@H](Cc1ccc(O)cc1)C(=O)NCC(=O)N[C@@H](CCC(=O)O)C(=O)N[C@@H](CC(C)C)C(=O)N[C@@H](CCC(N)=O)C(=O)N[C@@H](CCCNC(=N)N)C(=O)N[C@H](C(=O)N[C@@H](CCC(N)=O)C(=O)N[C@@H](CCC(N)=O)C(=O)N[C@@H](CCCCN)C(=O)N[C@@H](CCCCN)C(=O)N[C@@H](CO)C(=O)N[C@@H](CCC(=O)O)C(=O)N[C@@H](CCCCN)C(=O)N[C@@H](CCCNC(=N)N)C(=O)N1CCC[C@H]1C(=O)N1CCC[C@H]1C(=O)N[C@@H](C)C(=O)N[C@@H](CCCCN)C(=O)N[C@@H](CC(C)C)C(=O)N[C@@H](CCC(N)=O)C(=O)N1CCC[C@H]1C(=O)N[C@@H](CCCNC(=N)N)C(=O)O)C(C)C)[C@@H](C)O` [Chimeric motilin (Y)(MG-BR)] (H-FVPIFTYGELQRVQQKKSEKRPPAKLQPR-OH; N-terminus and C-terminus assumed) yielded a half-life of 11.6 min.
